Here are results for twelve compounds from patent US12637453B2, “Pyrazolopyridine inhibitors of c-Jun-n-Terminal kinases and uses thereof” (Dana-Farber Cancer Institute, Inc., priority 2019, dated 2026).

Format in all cases: biochemical
One test has as its target JNK3 (Homo sapiens, UniProt P53779). The test can be described thus: IC50 assay for JNK kinase inhibition, JNK3.
For another test, the target named is JNK1 (Homo sapiens, UniProt P45983). The test can be described thus: IC50 assay for JNK kinase inhibition, JNK1.
Sequence of JNK1 (P45983 whole entry): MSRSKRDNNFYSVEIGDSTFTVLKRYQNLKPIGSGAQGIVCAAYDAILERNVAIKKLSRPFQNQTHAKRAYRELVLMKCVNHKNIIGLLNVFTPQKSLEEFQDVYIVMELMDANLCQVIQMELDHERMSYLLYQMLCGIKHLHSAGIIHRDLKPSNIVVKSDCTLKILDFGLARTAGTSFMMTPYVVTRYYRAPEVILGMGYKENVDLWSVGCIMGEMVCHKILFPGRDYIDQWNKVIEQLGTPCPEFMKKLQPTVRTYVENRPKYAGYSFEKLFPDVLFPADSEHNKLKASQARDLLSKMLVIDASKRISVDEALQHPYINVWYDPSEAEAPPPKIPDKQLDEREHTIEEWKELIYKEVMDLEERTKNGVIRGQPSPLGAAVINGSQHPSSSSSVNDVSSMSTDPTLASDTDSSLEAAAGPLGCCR
The target in a further test is JNK2 (Homo sapiens, UniProt P45984). The test can be described thus: IC50 assay for JNK kinase inhibition, JNK2.
Sequence of JNK2 (P45984 whole entry): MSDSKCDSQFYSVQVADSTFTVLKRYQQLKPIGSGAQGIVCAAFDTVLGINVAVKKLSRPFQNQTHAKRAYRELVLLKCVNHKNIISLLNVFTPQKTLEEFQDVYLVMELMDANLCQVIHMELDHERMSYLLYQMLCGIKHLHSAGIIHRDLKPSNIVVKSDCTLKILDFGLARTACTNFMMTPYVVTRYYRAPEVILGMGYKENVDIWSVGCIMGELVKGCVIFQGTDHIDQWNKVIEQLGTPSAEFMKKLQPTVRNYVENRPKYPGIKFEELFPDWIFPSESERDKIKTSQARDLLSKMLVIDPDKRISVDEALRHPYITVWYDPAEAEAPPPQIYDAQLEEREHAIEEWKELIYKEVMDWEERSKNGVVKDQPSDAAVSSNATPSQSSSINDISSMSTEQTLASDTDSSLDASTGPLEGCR

Structures are written as SMILES.

Sequence of JNK3 (P53779 whole entry): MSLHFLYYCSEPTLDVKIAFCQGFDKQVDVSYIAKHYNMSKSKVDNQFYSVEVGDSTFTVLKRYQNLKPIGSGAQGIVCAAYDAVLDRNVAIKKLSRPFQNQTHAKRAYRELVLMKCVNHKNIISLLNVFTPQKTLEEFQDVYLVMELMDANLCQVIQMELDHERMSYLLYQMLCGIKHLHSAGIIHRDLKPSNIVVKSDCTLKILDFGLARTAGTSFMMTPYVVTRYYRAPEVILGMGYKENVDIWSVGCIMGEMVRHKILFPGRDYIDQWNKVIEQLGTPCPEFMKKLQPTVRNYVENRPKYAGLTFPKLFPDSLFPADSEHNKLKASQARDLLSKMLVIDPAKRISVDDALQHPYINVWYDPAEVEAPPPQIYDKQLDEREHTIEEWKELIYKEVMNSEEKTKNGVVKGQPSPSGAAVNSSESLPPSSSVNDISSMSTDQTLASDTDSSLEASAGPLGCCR

As usually defined, the IC50 is the midpoint of a concentration-inhibition curve. High values mean weaker potency in that assay, low ones greater potency in that assay. Turning to `CN(C)C/C=C/C(=O)Nc1ccc(C(=O)N2CC3CC(Nc4nccc(-c5c(-c6ccccc6)nn6ccccc56)n4)C2C3)cc1` (stereo not drawn) [I-17, (E)-4-(dimethylamino)-N-(4-(6-((4-(2-phenylpyrazolo[1,5-a]pyridin-3-yl)pyrimidin-2-yl)amino)-2-azabicyclo[2.2.1]heptane-2-carbonyl)phenyl)but-2-enamide], the IC50 at JNK3 was greater than 10000 nM; on JNK1, greater than 10000 nM; at JNK2, 7890 nM.
For `CN(C)C/C=C/C(=O)Nc1ccc(NC(=O)N2CC[C@H](Nc3nccc(-c4c(-c5ccccc5)nn5ccccc45)n3)C2)cc1` [I-18, (S,E)-N-(4-(4-(dimethylamino)but-2-enamido)phenyl)-3-((4-(2-phenylpyrazolo[1,5-a]pyridin-3-yl)pyrimidin-2-yl)amino)pyrrolidine-1-carboxamide], the results for the IC50 at JNK3, against JNK1 and at JNK2 were 15.7 nM, 99.3 nM and 12.4 nM, respectively.
The corresponding values for `CN(C)C/C=C/C(=O)Nc1ccc2c(N3CC[C@H](Nc4nccc(-c5c(-c6ccccc6)nn6ccccc56)n4)C3)nccc2c1` [I-20, (S,E)-4-(dimethylamino)-N-(1-(3-((4-(2-phenylpyrazolo[1,5-a]pyridin-3-yl)pyrimidin-2-yl)amino)pyrrolidin-1-yl)isoquinolin-6-yl)but-2-enamide] are 12 nM, 168 nM and 10 nM.
As to `CN(C)C/C=C/C(=O)Nc1ccc(C(=O)N2CC[C@H](Nc3ncc(Cl)c(-c4c(-c5ccccc5)nn5ccccc45)n3)C2)cc1` [I-21, (S,E)-N-(4-(3-((5-chloro-4-(2-phenylpyrazolo[1,5-a]pyridin-3-yl)pyrimidin-2-yl)amino)pyrrolidine-1-carbonyl)phenyl)-4-(dimethylamino)but-2-enamide], the IC50 on JNK3 is 359 nM; against JNK1, 3360 nM; at JNK2, 585 nM.
Turning to `CN(C)C/C=C/C(=O)Nc1ccc(C(=O)N2CC[C@H](Nc3nccc(-c4c(-c5ccc(F)cc5)nn5ccccc45)n3)C2)cc1` [I-22, (S,E)-4-(dimethylamino)-N-(4-(3-((4-(2-(4-fluorophenyl)pyrazolo[1,5-a]pyridin-3-yl)pyrimidin-2-yl)amino)pyrrolidine-1-carbonyl)phenyl)but-2-enamide], the results for the IC50 at JNK3, on JNK1 and against JNK2 were 3.87 nM, 85 nM and 5.57 nM, respectively.
With `Cc1cccn2nc(-c3ccccc3)c(-c3ccnc(N[C@H]4CCN(C(=O)c5ccc(NC(=O)/C=C/CN(C)C)cc5)C4)n3)c12` [I-23, (S,E)-4-(dimethylamino)-N-(4-(3-((4-(4-methyl-2-phenylpyrazolo[1,5-a]pyridin-3-yl)pyrimidin-2-yl)amino)pyrrolidine-1-carbonyl)phenyl)but-2-enamide], the IC50 against JNK3 turned out to be 396 nM; on JNK1, 1140 nM; against JNK2, 142 nM.
The corresponding values for `Cc1ccc2c(-c3ccnc(N[C@H]4CCN(C(=O)c5ccc(NC(=O)/C=C/CN(C)C)cc5)C4)n3)c(-c3ccccc3)nn2c1` [I-24, (S,E)-4-(dimethylamino)-N-(4-(3-((4-(6-methyl-2-phenylpyrazolo[1,5-a]pyridin-3-yl)pyrimidin-2-yl)amino)pyrrolidine-1-carbonyl)phenyl)but-2-enamide] are 5.53 nM, 18.4 nM and 0.952 nM.
For the compound `CN(C)C/C=C/C(=O)Nc1ccc(C(=O)N2CC[C@H](Nc3nccc(-c4c(-c5cccc(Cl)c5)nn5ccccc45)n3)C2)cc1` [I-25, (S,E)-N-(4-(3-((4-(2-(3-chlorophenyl)pyrazolo[1,5-a]pyridin-3-yl)pyrimidin-2-yl)amino)pyrrolidine-1-carbonyl)phenyl)-4-(dimethylamino)but-2-enamide], the IC50 came out at 18.3 nM on JNK3, 90.7 nM against JNK1 and 3.92 nM on JNK2.
The corresponding values for `CN(C)C/C=C/C(=O)Nc1ccc(C(=O)N2CC[C@H](Nc3nccc(-c4c(-c5ccc(Cl)cc5)nn5ccccc45)n3)C2)cc1` [I-26, (S,E)-N-(4-(3-((4-(2-(4-chlorophenyl)pyrazolo[1,5-a]pyridin-3-yl)pyrimidin-2-yl)amino)pyrrolidine-1-carbonyl)phenyl)-4-(dimethylamino)but-2-enamide] are 10.3 nM, 8.9 nM and 67.6 nM.
With `C[C@H]1CN(C(=O)c2ccc(NC(=O)CCCN(C)C)cc2)C[C@H]1Nc1nccc(-c2c(-c3ccccc3)nn3ccccc23)n1` [I-27, 4-(dimethylamino)-N-(4-((3S,4S)-3-methyl-4-((4-(2-phenylpyrazolo[1,5-a]pyridin-3-yl)pyrimidin-2-yl)amino)pyrrolidine-1-carbonyl)phenyl)butanamide], the IC50 against JNK3 came out at 790 nM; against JNK1, 2600 nM; on JNK2, 99.5 nM.
On to `Cc1ccc2c(-c3ccnc(N[C@@H]4CN(C(=O)c5ccc(NC(=O)/C=C/CN(C)C)cc5)C[C@@H]4C)n3)c(-c3ccccc3)nn2c1` [I-31, (E)-4-(dimethylamino)-N-(4-((3S,4S)-3-methyl-4-((4-(6-methyl-2-phenylpyrazolo[1,5-a]pyridin-3-yl)pyrimidin-2-yl)amino)pyrrolidine-1-carbonyl)phenyl)but-2-enamide], for which the IC50 on JNK3 came to 274 nM; at JNK1 it was 2390 nM; on JNK2, 85.8 nM.
The corresponding values for `COc1cccn2nc(-c3ccccc3)c(-c3ccnc(N[C@@H]4CN(C(=O)c5ccc(NC(=O)/C=C/CN(C)C)cc5)C[C@@H]4C)n3)c12` [I-32, (E)-4-(dimethylamino)-N-(4-((3S,4S)-3-((4-(4-methoxy-2-phenylpyrazolo[1,5-a]pyridin-3-yl)pyrimidin-2-yl)amino)-4-methylpyrrolidine-1-carbonyl)phenyl)but-2-enamide] are greater than 3330 nM, 1810 nM and 222 nM.
